Our source for the IC50 values is patent US20230286970A1, “NOVEL OXADIAZOLE-BASED SELECTIVE HDAC6 INHIBITORS” (ITALFARMACO S.P.A., priority 2020, published 2023).

The target of one experiment is recombinant human HDAC1 (Homo sapiens (Human), UniProt Q13547). As to the kind of experiment: Enzymatic screening, HDAC1 inhibition (fluorogenic FdL_G substrate). It is filed as biochemical. As to the method: (§1) For each test compound, 100× concentrated DMSO solutions at 8 doses were prepared and then diluted in assay buffer (25 mM Tris-HCl, pH 8, 130 mM NaCl, 0.05% Tween-20, 10% Glycerol) to obtain 5× concentrated solutions in relation to the final concentrations (typical final concentration range—6.4-200000 nM or 0.18-50000 nM, final DMSO content—1%). Then 10 μL solution of each test compound concentration were placed on a 96-well plate in triplicate and 15 μL of 3.33× concentrated enzyme solution in the assay buffer containing 3.33× concentrated BSA (final BSA concentration—2 mg/mL for HDAC4, HDAC5 and HDAC9 or 1 mg/mL for other isoforms) and in the case of HDAC6-3.33× concentrated TCEP (final TCEP concentration—200 μM) were added to each well. After a period of preincubation (incubation times and temperatures vary for different isoforms and are shown in table 1) 25 μL of solution containing the substrate were added. As substrate, FLUOR DE LYS® deacetylase substrate (Enzo Life Sciences, cat: BML-KI104, FdL), FLUOR DE LYS®-Green substrate (Enzo Life Sciences, cat: BML-KI572, FdL_G) or Boc-Lys(Tfa)-AMC (Bachem, cat: 4060676.005, Tfal)—2× concentrated solution in assay buffer were used. Following a reaction period (reaction times and temperatures vary for different isoforms and are reported in Table 1), 50 μL of the development solution consisting of concentrate FLUOR DE LYS® developer I (Enzo Life Sciences, ca: BML-KI105), diluted 200 times in buffer (50 mM Tris-HCl, pH 8, 137 mM NaCl, 2.7 mM KCl, 1 mM MgCl2) plus 2 μM TSA was added and, after 25 minutes at room temperature in the dark, using the Victor 1420 Multilabel Counter Perkin Elmer Wallac instrument, the fluorescence reading was carried out.
Chain of recombinant human HDAC1 (Q13547 whole entry, canonical isoform): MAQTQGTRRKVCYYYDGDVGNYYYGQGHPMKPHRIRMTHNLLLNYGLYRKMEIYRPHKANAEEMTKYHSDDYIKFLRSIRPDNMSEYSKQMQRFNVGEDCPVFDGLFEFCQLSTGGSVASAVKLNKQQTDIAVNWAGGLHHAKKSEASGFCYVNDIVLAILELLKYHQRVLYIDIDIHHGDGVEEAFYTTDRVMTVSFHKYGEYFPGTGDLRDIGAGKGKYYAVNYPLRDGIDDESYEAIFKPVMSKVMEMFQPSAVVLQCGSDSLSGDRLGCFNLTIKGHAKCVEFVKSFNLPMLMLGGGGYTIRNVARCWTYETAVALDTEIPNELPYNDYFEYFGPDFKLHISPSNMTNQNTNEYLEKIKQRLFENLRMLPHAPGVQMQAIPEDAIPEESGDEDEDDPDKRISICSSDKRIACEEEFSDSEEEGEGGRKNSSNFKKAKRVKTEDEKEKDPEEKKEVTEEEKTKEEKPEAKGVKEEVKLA

Another experiment has as its target recombinant human HDAC6 (Homo sapiens (Human), UniProt Q9UBN7). Briefly: Enzymatic screening, HDAC6 inhibition (fluorogenic FdL_G substrate). It is filed as biochemical. As to the method:
as §1

Chain of recombinant human HDAC6 (Q9UBN7 whole entry): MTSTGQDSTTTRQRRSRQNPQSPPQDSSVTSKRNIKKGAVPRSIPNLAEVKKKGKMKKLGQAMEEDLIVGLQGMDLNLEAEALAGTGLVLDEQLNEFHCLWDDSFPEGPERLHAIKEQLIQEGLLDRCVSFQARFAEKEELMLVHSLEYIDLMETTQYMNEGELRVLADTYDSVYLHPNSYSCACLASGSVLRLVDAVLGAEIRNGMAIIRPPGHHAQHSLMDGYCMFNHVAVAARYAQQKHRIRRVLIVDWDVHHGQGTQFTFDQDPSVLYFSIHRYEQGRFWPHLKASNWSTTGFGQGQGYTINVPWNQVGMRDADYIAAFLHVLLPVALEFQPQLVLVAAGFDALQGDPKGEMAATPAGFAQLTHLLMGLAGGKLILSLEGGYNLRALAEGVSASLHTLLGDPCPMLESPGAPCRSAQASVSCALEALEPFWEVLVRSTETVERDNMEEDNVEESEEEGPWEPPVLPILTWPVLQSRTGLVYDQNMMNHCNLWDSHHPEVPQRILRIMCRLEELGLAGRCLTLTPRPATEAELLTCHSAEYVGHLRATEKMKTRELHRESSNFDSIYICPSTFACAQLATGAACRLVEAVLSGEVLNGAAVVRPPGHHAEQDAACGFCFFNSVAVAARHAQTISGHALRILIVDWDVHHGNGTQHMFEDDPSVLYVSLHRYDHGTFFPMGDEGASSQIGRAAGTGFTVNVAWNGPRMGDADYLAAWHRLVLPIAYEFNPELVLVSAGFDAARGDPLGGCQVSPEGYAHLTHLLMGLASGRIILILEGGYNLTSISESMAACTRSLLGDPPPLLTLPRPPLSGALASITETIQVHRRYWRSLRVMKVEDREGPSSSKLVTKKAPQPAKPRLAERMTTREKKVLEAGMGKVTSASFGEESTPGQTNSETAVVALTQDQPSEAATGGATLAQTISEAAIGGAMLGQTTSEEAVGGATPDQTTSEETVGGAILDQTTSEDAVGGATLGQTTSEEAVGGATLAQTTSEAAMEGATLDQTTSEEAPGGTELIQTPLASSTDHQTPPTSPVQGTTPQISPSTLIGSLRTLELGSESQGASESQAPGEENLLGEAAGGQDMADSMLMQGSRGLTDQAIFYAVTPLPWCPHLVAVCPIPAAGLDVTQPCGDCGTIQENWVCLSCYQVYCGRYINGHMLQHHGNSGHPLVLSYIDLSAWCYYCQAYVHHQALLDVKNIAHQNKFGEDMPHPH

Usually IC50 stands for the concentration that inhibits the measured activity by half. As for `NC(=O)c1cccc(-c2cn(Cc3ccc(-c4nnc(C(F)F)o4)cn3)cn2)c1` [compd. 305, 3-[1-[[5-[5-(difluoromethyl)-1,3,4-oxadiazol-2-yl]pyridin-2-yl]methyl]imidazol-4-yl]benzamide], the IC50 on recombinant human HDAC1 is more than 1e+06 nM; at recombinant human HDAC6, 23 nM.

For the compound `Nc1nc2cc(-c3cn(Cc4ccc(-c5nnc(C(F)F)o5)cc4)cn3)ccc2o1` [compd. 309, 5-[1-[[4-[5-(difluoromethyl)-1,3,4-oxadiazol-2-yl]phenyl]methyl]imidazol-4-yl]-1,3-benzoxazol-2-amine], the half-inhibitory concentration (IC50) was more than 1e+06 nM at recombinant human HDAC1 and 69 nM at recombinant human HDAC6.

Turning to `Nc1nc2ccc(-c3cc(Cc4ccc(-c5nnc(C(F)F)o5)cc4)on3)cc2s1` [compd. 366, 6-[5-[[4-[5-(difluoromethyl)-1,3,4-oxadiazol-2-yl]phenyl]methyl]-1,2-oxazol-3-yl]-1,3-benzothiazol-2-amine], the 50% inhibitory concentration (IC50) at recombinant human HDAC1 was more than 1e+06 nM; on recombinant human HDAC6 it was 297 nM.

For the compound `Nc1nc2ccc(-n3cc(Cc4ccc(-c5nnc(C(F)F)o5)cc4)nn3)cc2s1` [compd. 377, 6-[4-[[4-[5-(difluoromethyl)-1,3,4-oxadiazol-2-yl]phenyl]methyl]triazol-1-yl]-1,3-benzothiazol-2-amine], the IC50 at recombinant human HDAC1 is more than 1e+06 nM; at recombinant human HDAC6, 370 nM.

For `Nc1ccc(-c2noc(Cc3ccc(-c4nnc(C(F)F)o4)cc3F)n2)cc1` [compd. 419, 4-(5-(4-(5-(difluoromethyl)-1,3,4-oxadiazol-2-yl)-2-fluorobenzyl)-1,2,4-oxadiazol-3-yl)aniline], the half-inhibitory concentration (IC50) at recombinant human HDAC1 is more than 1e+06 nM; at recombinant human HDAC6, 64 nM.

Turning to `O=C(Nc1cc(-c2nnn(Cc3ccc(-c4nnc(C(F)F)o4)cc3)n2)ccc1O)N1CCOCC1` [compound 25, N-(5-(2-(4-(5-(difluoromethyl)-1,3,4-oxadiazol-2-yl)benzyl)-2H-tetrazol-5-yl)-2-hydroxyphenyl)morpholine-4-carboxamide], the 50% inhibitory concentration (IC50) at recombinant human HDAC1 was more than 200000 nM; at recombinant human HDAC6, 7 nM.

In the case of `O=C1Nc2ccc(-c3nnn(Cc4ccc(-c5nnc(C(F)F)o5)cn4)n3)cc2NC12CCCC2` [compound 27, 7′-(2-((5-(5-(difluoromethyl)-1,3,4-oxadiazol-2-yl)pyridin-2-yl)methyl)-2H-tetrazol-5-yl)-1′,4′-dihydro-3′H-spiro[cyclopentane-1,2′-quinoxalin]-3′-one], the half-maximal inhibitory concentration (IC50) at recombinant human HDAC1 was more than 200000 nM; at recombinant human HDAC6 it was 9 nM.

As for `CN(C)C(=O)Nc1cc(-c2nnn(Cc3ccc(-c4nnc(C(F)F)o4)cc3)n2)ccc1O` [compound 31, 3-(5-(2-(4-(5-(difluoromethyl)-1,3,4-oxadiazol-2-yl)benzyl)-2H-tetrazol-5-yl)-2-hydroxyphenyl)-1,1-dimethylurea], the IC50 is more than 200000 nM at recombinant human HDAC1 and 14 nM on recombinant human HDAC6.

With `Nc1cc(-c2nnn(Cc3ccc(-c4nnc(C(F)F)o4)cc3)n2)ccc1O` [compound 35, 2-amino-4-(2-(4-(5-(difluoromethyl)-1,3,4-oxadiazol-2-yl)benzyl)-2H-tetrazol-5-yl)phenol], the IC50 at recombinant human HDAC1 is more than 200000 nM; at recombinant human HDAC6 it was 16 nM.

In the case of `O=C1NCc2ccc(-c3nnn(Cc4ccc(-c5nnc(C(F)F)o5)cc4F)n3)cc21` [compound 40, 6-(2-(4-(5-(difluoromethyl)-1,3,4-oxadiazol-2-yl)-2-fluorobenzyl)-2H-tetrazol-5-yl)isoindolin-1-one], the figures for the 50% inhibitory concentration (IC50) on recombinant human HDAC1 and on recombinant human HDAC6 were more than 200000 nM and 19 nM, respectively.

In the case of `Nc1ccc(-c2cn(Cc3c(F)cc(-c4nnc(C(F)F)o4)cc3F)nn2)cn1` [compound 42, 5-(1-(4-(5-(difluoromethyl)-1,3,4-oxadiazol-2-yl)-2,6-difluorobenzyl)-1H-1,2,3-triazol-4-yl)pyridin-2-amine], the figures for the IC50 on recombinant human HDAC1 and at recombinant human HDAC6 were more than 200000 nM and 19 nM, respectively.

Take `NCc1ccc(-c2nnn(Cc3ccc(-c4nnc(C(F)F)o4)cc3)n2)cc1` [compound 43, (4-(2-(4-(5-(difluoromethyl)-1,3,4-oxadiazol-2-yl)benzyl)-2H-tetrazol-5-yl)phenyl)methanamine]: the IC50 at recombinant human HDAC1 stood at 74900 nM; at recombinant human HDAC6 it was 20 nM.

With `Nc1ccc(-c2nnn(Cc3c(F)cc(-c4nnc(C(F)F)o4)cc3F)n2)cn1` [compound 45, 5-(2-(4-(5-(difluoromethyl)-1,3,4-oxadiazol-2-yl)-2,6-difluorobenzyl)-2H-tetrazol-5-yl)pyridin-2-amine], the concentration for half-maximal inhibition (IC50) was more than 200000 nM on recombinant human HDAC1 and 20 nM at recombinant human HDAC6.

For `O=C(Nc1cccc(-c2cn(Cc3ccc(-c4nnc(C(F)F)o4)cc3F)nn2)c1)N1CCOCC1` [compound 47, N-(3-(1-(4-(5-(difluoromethyl)-1,3,4-oxadiazol-2-yl)-2-fluorobenzyl)-1H-1,2,3-triazol-4-yl)phenyl)morpholine-4-carboxamide], the half-inhibitory concentration (IC50) is more than 30000 nM on recombinant human HDAC1 and 21 nM on recombinant human HDAC6.

In the case of `Nc1ccc(-c2cn(Cc3ccc(-c4nnc(C(F)F)o4)cc3F)nn2)cn1` [compound 48, 5-(1-(4-(5-(difluoromethyl)-1,3,4-oxadiazol-2-yl)-2-fluorobenzyl)-1H-1,2,3-triazol-4-yl)pyridin-2-amine], the IC50 on recombinant human HDAC1 is more than 30000 nM; at recombinant human HDAC6 it was 21 nM.

With `O=C1Nc2ccc(-c3cn(Cc4ccc(-c5nnc(C(F)F)o5)cc4)nn3)cc2C12CCNC2` (centres unmarked) [compound 49, 5-(1-(4-(5-(difluoromethyl)-1,3,4-oxadiazol-2-yl)benzyl)-1H-1,2,3-triazol-4-yl)spiro[indoline-3,3′-pyrrolidin]-2-one], the values for the IC50 at recombinant human HDAC1 and on recombinant human HDAC6 were more than 200000 nM and 21 nM, respectively.

As to `NC(=O)c1cccc(-c2nnn(Cc3c(F)cc(-c4nnc(C(F)F)o4)cc3F)n2)c1` [compound 54, 3-(2-(4-(5-(difluoromethyl)-1,3,4-oxadiazol-2-yl)-2,6-difluorobenzyl)-2H-tetrazol-5-yl)benzamide], the half-maximal inhibitory concentration (IC50) was more than 200000 nM at recombinant human HDAC1 and 23 nM on recombinant human HDAC6.

For `CN1CCN(c2cccc(-c3nnn(Cc4ccc(-c5nnc(C(F)F)o5)cc4)n3)c2)CC1` [compound 58, 2-(difluoromethyl)-5-(4-((5-(3-(4-methylpiperazin-1-yl)phenyl)-2H-tetrazol-2-yl)methyl)phenyl)-1,3,4-oxadiazole], the IC50 was more than 200000 nM on recombinant human HDAC1 and 25 nM at recombinant human HDAC6.

Take `O=C1Nc2ccc(-c3cn(Cc4ccc(-c5nnc(C(F)F)o5)cc4)nn3)cc2C12CCCC2` [compound 61, 5′-(1-(4-(5-(difluoromethyl)-1,3,4-oxadiazol-2-yl)benzyl)-1H-1,2,3-triazol-4-yl)spiro[cyclopentane-1,3′-indolin]-2′-one]: the IC50 at recombinant human HDAC1 is more than 200000 nM; on recombinant human HDAC6, 27 nM.

Consider `CN1CCN(C(=O)Nc2cccc(-c3cn(Cc4c(F)cc(-c5nnc(C(F)F)o5)cc4F)nn3)c2)CC1` [compound 63, N-(3-(1-(4-(5-(difluoromethyl)-1,3,4-oxadiazol-2-yl)-2,6-difluorobenzyl)-1H-1,2,3-triazol-4-yl)phenyl)-4-methylpiperazine-1-carboxamide], for which the half-inhibitory concentration (IC50) at recombinant human HDAC1 was more than 200000 nM; on recombinant human HDAC6, 28 nM.

Take `CC(c1ccc(-c2nnc(C(F)F)o2)cn1)n1cc(-c2cccc(NC(=O)N3CCOCC3)c2)nn1` (centres unmarked) [compound 66, N-(3-(1-(1-(5-(5-(difluoromethyl)-1,3,4-oxadiazol-2-yl)pyridin-2-yl)ethyl)-1H-1,2,3-triazol-4-yl)phenyl)morpholine-4-carboxamide]: the results for the concentration for half-maximal inhibition (IC50) on recombinant human HDAC1 and at recombinant human HDAC6 were more than 200000 nM and 28 nM, respectively.

`O=C(Nc1ccc(-c2nnn(Cc3ncc(-c4nnc(C(F)F)o4)cn3)n2)cn1)C(F)F` [compound 68, N-(5-(2-((5-(5-(difluoromethyl)-1,3,4-oxadiazol-2-yl)pyrimidin-2-yl)methyl)-2H-tetrazol-5-yl)pyridin-2-yl)-2,2-difluoroacetamide]: the IC50 at recombinant human HDAC1 was more than 200000 nM; at recombinant human HDAC6, 33 nM.

In the case of `CC(=O)Nc1cccc(-c2cn(Cc3c(F)cc(-c4nnc(C(F)F)o4)cc3F)nn2)c1` [compound 70, N-(3-(1-(4-(5-(difluoromethyl)-1,3,4-oxadiazol-2-yl)-2,6-difluorobenzyl)-1H-1,2,3-triazol-4-yl)phenyl)acetamide], the results for the half-maximal inhibitory concentration (IC50) at recombinant human HDAC1 and at recombinant human HDAC6 were more than 200000 nM and 34 nM, respectively.

As to `O=C(Nc1cccc(-c2nnn(Cc3ccc(-c4nnc(C(F)F)o4)cc3)n2)c1)N1CCOCC1` [compound 71, N-(3-(2-(4-(5-(difluoromethyl)-1,3,4-oxadiazol-2-yl)benzyl)-2H-tetrazol-5-yl)phenyl)morpholine-4-carboxamide], the values for the concentration for half-maximal inhibition (IC50) at recombinant human HDAC1 and on recombinant human HDAC6 were more than 200000 nM and 30 nM, respectively.

As to `NC(=O)c1cc(-c2nnn(Cc3ccc(-c4nnc(C(F)F)o4)cc3)n2)ccc1N` [compound 72, 2-amino-5-(2-(4-(5-(difluoromethyl)-1,3,4-oxadiazol-2-yl)benzyl)-2H-tetrazol-5-yl)benzamide], the IC50 at recombinant human HDAC1 is more than 200000 nM; on recombinant human HDAC6, 30 nM.
